SMILES strings stand for the structures. Counter-ions that a name gives are not always drawn.

For one assay, the system named is glaucoma. The following applies: clinical trial; Eur. J. Ophthalmol. 1997, 7(1): 35-9; cited from earlier work.
Assay [1] concerns intraocular pressure of New Zealand White Rabbits. The assay is described as follows: Intraocular pressure lowering test (3), change ratio of intraocular pressure (Example 3). The class given is in vivo. The following applies: 50 μl each, four hours after second administration. On the procedure:
Using a tonometer (“Alcon Applanation Pneumatonography; manufactured by Alcon), the intraocular pressure of each of New Zealand White Rabbits having body weights of 2 to 3 kg was measured (without anesthesia), followed by administration of 50 μl of a test compound in the form of eye drops. The intraocular pressure was then measured for 4 hours at intervals of one hour (single administration test).
After the measurement of the intraocular pressure as in Example 2, 50 μl of a solution of test compound 1 was instilled into the eyes, followed by administration of the same amount of the solution of test compound 2 after 5 minutes. Four hours after the second administration, the intraocular pressure was measured and the change ratio of the intraocular pressure was determined by the below-described equation: The change ratio of intraocular pressure (%)=[(intraocular pressure after administration of eye drops−intraocular pressure before administration of eye drops)/intraocular pressure before administration of eye drops]×100.
In this Example, the same test compounds as Example 1 were employed. The results are shown below in Tables 1 and 2.

Assay [2] concerns ocular hypertension models of New Zealand White Rabbits. The assay is described as follows: Intraocular pressure lowering test (4), ocular hypertension model (Example 4). The class given is in vivo. To be noted: relative to control group. On the procedure: Using New Zealand White Rabbits having body weights of 2 to 3 kg, ocular hypertension models were prepared in accordance with the method of Kurihara, et al. (Jpn. J. Ocular Pharmacology, 4, 62-64(1990)) and the intraocular pressure lowering action of the test compounds was investigated.
Described specifically, the rabbits were maintained under general anesthesia and their intraocular pressure was measured using a tonometer (“Alcon Applanation Pneumatonography”; manufactured by Alcon). After instillation of local anesthetics into the eyes of the rabbits, 0.1 ml of a 5% sodium chloride solution were injected into their vitreous bodies through a 30 gauge needle. An increase in the intraocular pressure was confirmed 30 minutes after injection, followed by administration of 50 μl of an eye drop solution containing the test compound. Their intraocular pressure was then measured for 2 hours at intervals of 30 minutes (single administration test).
An ocular hypertension model was made as in Example 1. After confirmation of an increase in the intraocular pressure, 50 μl of a test compound 1 was instilled to the eyes, followed by application of the same amount of a test compound 2 into the eyes after 5 minutes. After this second administration, the intraocular pressure was measured for 2 hours at intervals of 1 hour. Intraocular pressure lowering was determined by the below-described equation. Decrease in intraocular pressure (mmHg)=(intraocular pressure after instillation of a compound group−intraocular pressure before instillation of the compound group)−(intraocular pressure after instillation of a control group−intraocular pressure before instillation of the control group)
The term “control group” in the above-described formula means a group to which physiological saline was administered to the eyes instead of each of the test compound 1 and test compound 2. Groups other than this control group are a compound group.
Also in this Example, the same test compounds as described in Example 1 were employed.

For the compound `CCCCC(=O)N(Cc1ccc(-c2ccccc2-c2nnn[nH]2)cc1)[C@H](C(=O)O)C(C)C` [CGP-48933], the effect for glaucoma result with glaucoma is reported as “insufficient”.
`CCCc1nc(C(C)(C)O)c(C(=O)O)n1Cc1ccc(-c2ccccc2-c2nnn[nH]2)cc1` [Compound A]: the “Change ratio (%) of intraocular pressure” value was determined as 11.4 ± 5.5% in assay [1] (Table 1, Compound A (4%) then physiological saline) and 11.5 ± 4.1% in assay [1] (Table 2, Compound A (4%) then physiological saline). Also, the “Decrease in intraocular pressure (mmHg)” value in assay [2] (Compound A (1%) then physiological saline, time after instillation 0 min) is given as 0.0 ± 2.1 mmHg; in assay [2] (Compound A (1%) then physiological saline, time after instillation 60 min), −1.7 ± 2.2 mmHg; in assay [2] (Compound A (1%) then physiological saline, time after instillation 120 min), −3.4 ± 1.7 mmHg.
Turning to `CC(C)(C)NC[C@H](O)COc1nsnc1N1CCOCC1` [Compound B, timolol maleate], the “Decrease in intraocular pressure (mmHg)” value is 0.0 ± 1.5 mmHg in assay [2] (physiological saline then Compound B (0.25%), time after instillation 0 min); −2.0 ± 3.5 mmHg in assay [2] (physiological saline then Compound B (0.25%), time after instillation 60 min); −1.9 ± 3.2 mmHg in assay [2] (physiological saline then Compound B (0.25%), time after instillation 120 min).
As for `CCCCCCCC(=O)CC[C@@H]1[C@@H](C/C=C\CCCC(=O)OC(C)C)[C@@H](O)C[C@H]1O` [Compound C, isopropyl unoprostone], the “Change ratio (%) of intraocular pressure” value in assay [1] (Table 1, physiological saline then Compound C (0.12%)) was −2.4 ± 9.1%.
On to `CC(C)OC(=O)CCC/C=C\C[C@@H]1[C@@H](CC[C@@H](O)CCc2ccccc2)[C@H](O)C[C@@H]1O` [Compound D, latanoprost], for which the “Change ratio (%) of intraocular pressure” value in assay [1] (Table 2, physiological saline then Compound D (0.005%)) is recorded as 17.2 ± 8.8%.
